Source: patent US20250289789A1, “REVERSIBLE LYSINE COVALENT MODIFIERS OF CDK2 AND USES THEREOF” (Terremoto Biosciences, Inc., priority 2023, published 2025)
pIC50: −log10 of the molar value. Like-named read-outs stand apart in the source and are kept apart here.

Key:
Type in all cases: cell-based
[1] = tested on: Phospho-Rb Ser807/811 in OVCAR3 cells; assay: OVCAR3 Phospho-Rb Ser807/811 HTRF assay; details: Homo sapiens, OVCAR-3, 1 h, read-out: pRb-OVCAR3 IC50
Protocol: Cells were trypsinized and resuspended in 1 mM hydroxyurea (Sigma; H8627), 90% RPMI and 10% fetal bovine serum. […] Dose response curve normalized to DMSO control was plotted using four-parameter logistic model for IC50 calculation.

[2] = target: T1, CDK4-NanoLuc fusion with CCND1 in 293T or 293 cells (Homo sapiens, UniProt P11802); assay: NanoBRET Target Engagement (TE) Intracellular Kinase Assay, CDK4/CCND1; details: NanoBRET TE intracellular kinase assay, 2-hour incubation, read-out: NanoBRET-CDK4/D1 IC50
T1 construct: host or cells: 293T (ATCC CRL-3216) or 293 (ATCC CRL-1573)

[3] = target: T2, CDK1-NanoLuc fusion with CCNB1 in 293T or 293 cells (Homo sapiens, UniProt P06493); assay: NanoBRET Target Engagement (TE) Intracellular Kinase Assay, CDK1/CCNB1; details: NanoBRET TE intracellular kinase assay, 2-hour incubation, read-out: NanoBRET-CDK1/B1 IC50
T2 construct: host or cells: 293T (ATCC CRL-3216) or 293 (ATCC CRL-1573)
Summary of the method: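 293T or 293 cells co-transfected with CDK1-NanoLuc and CCNB1 vectors, incubated 24 h, then exposed to NanoBRET Tracer K-10 plus compound for 2 h at 37° C. BRET ratio (610/450 nm) normalized to DMSO; IC50 from four-parameter logistic fit.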

[4] = target: T3, CDK2-NanoLuc fusion with CCNE1 in 293T or 293 cells (Homo sapiens, UniProt P24941); assay: NanoBRET Target Engagement (TE) Intracellular Kinase Assay, CDK2/CCNE1; details: NanoBRET TE intracellular kinase assay, 2-hour incubation, read-out: NanoBRET-CDK2/E1 IC50
T3 construct: host or cells: 293T (ATCC CRL-3216) or 293 (ATCC CRL-1573)

[5] = OVCAR3 cells, Phospho-Rb Ser807/811 HTRF, 1 hour incubation

T1 sequence (P11802 whole entry, the tested form may be a part): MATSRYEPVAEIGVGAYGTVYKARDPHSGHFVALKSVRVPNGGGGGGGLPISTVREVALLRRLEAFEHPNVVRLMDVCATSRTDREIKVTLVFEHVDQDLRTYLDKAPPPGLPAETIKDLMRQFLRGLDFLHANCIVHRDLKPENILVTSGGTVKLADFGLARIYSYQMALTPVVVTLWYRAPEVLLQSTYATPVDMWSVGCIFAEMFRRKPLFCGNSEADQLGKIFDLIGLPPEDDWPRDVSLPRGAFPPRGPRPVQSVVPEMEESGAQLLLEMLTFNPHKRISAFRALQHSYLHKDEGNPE
T1 sequence (P24385 whole entry partner, the tested form may be a part): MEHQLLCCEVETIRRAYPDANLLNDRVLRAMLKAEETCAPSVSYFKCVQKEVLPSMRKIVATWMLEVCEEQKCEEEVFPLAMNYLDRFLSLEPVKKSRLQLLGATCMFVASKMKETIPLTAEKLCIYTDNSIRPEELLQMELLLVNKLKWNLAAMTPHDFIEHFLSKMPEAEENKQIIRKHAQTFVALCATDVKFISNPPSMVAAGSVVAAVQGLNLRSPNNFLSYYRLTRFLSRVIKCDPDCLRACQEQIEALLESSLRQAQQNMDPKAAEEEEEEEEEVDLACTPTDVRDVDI
T2 sequence (P06493 whole entry, the tested form may be a part): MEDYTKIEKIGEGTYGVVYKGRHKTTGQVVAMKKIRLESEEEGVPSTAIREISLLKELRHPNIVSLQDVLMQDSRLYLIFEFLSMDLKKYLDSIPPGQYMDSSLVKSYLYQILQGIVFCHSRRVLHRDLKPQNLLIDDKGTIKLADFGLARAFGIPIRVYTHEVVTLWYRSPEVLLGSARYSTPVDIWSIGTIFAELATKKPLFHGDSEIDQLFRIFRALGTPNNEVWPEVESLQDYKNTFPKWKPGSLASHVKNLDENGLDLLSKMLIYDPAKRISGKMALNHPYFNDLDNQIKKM
T2 sequence (P14635 whole entry partner, the tested form may be a part): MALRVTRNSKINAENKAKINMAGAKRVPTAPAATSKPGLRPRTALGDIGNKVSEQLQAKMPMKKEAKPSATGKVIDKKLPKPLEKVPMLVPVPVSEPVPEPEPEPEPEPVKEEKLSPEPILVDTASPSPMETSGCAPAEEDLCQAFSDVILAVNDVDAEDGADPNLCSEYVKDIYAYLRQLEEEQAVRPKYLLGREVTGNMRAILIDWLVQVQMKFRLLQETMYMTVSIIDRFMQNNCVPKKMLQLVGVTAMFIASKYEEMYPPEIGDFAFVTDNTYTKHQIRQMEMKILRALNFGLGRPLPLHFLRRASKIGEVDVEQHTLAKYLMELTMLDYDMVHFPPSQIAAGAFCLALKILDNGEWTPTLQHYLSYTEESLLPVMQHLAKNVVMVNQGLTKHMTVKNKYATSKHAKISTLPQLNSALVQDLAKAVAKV

| Compound | pIC50 [1, 5] | pIC50 [2] | pIC50 [3] | pIC50 [4] | pIC50 [1] |
| --- | --- | --- | --- | --- | --- |
| CC(C)NC(=O)O[C@@H]1CC[C@H](c2cc(NC(=O)c3cc(-c4cccc(O)c4C=O)n(C)n3)n[nH]2)C1 [Compound 59, (1R,3S)-3-{5-[5-(2-formyl-3-hydroxyphenyl)-1-methylpyrazole-3-amido]-2H-pyrazol-3-yl}cyclopentyl N-isopropylcarbamate] | 5.64 | < 5.00 | 6.44 | 7.49 | – |
| CC(C)NC(=O)O[C@@H]1CC[C@H](c2cc(NC(=O)CCc3cccc(O)c3C=O)n[nH]2)C1 [Compound 7, (1R,3S)-3-(3-(3-(2-formyl-3-hydroxyphenyl)propanamido)-1H-pyrazol-5-yl)cyclopentyl isopropylcarbamate trifuoroacetic acid] | – | 5.73 | 6.56 | 7.94 | 5.82 |
| COc1cccc(-c2cc(C(=O)Nc3cc([C@H]4CC[C@@H](OC(=O)NC(C)C)C4)[nH]n3)n(C)n2)c1C=O [Compound 106, (1R,3S)-3-{5-[5-(2-formyl-3-methoxyphenyl)-2-methylpyrazole-3-amido]-2H-pyrazol-3-yl}cyclopentyl N-isopropylcarbamate; trifluoroacetic acid] | 6.51 | 5.48 | 7.81 | 8.37 | – |
| CC(C)NC(=O)O[C@@H]1CC[C@H](c2cc(NC(=O)c3cc(OCc4cccc(O)c4C=O)nn3C)n[nH]2)C1 [Compound 28, (1R,3S)-3-(3-(3-((2-formyl-3-hydroxybenzyl)oxy)-1-methyl-1H-pyrazole-5-carboxamido)-1H-pyrazol-5-yl)cyclopentyl isopropylcarbamate] | 5.74 | 5.92 | 6.82 | 7.98 | – |
| CC(C)NC(=O)O[C@@H]1CC[C@H](c2cc(NC(=O)Cc3ncc(-c4cccc(O)c4C=O)s3)n[nH]2)C1 [Compound 66, (1R,3S)-3-(5-{2-[5-(2-formyl-3-hydroxyphenyl)-1,3-thiazol-2-yl]acetamido}-2H-pyrazol-3-yl)cyclopentyl N-isopropylcarbamate; trifluoroacetic acid] | 5.77 | 6.11 | 6.41 | 8.05 | – |
| CC(C)NC(=O)O[C@@H]1CC[C@H](c2cc(NC(=O)[C@H]3C[C@H](c4cccc(O)c4C=O)C3)n[nH]2)C1 [Compound 107, (1R,3S)-3-(3-((1r,3S)-3-(2-formyl-3-hydroxyphenyl)cyclobutane-1-carboxamido)-1H-pyrazol-5-yl)cyclopentyl isopropylcarbamate] | 7.22 | 6.65 | 7.92 | 8.36 | – |
| CC(C)NC(=O)O[C@@H]1CC[C@H](c2cc(Nc3cc(C#Cc4cccc(O)c4C=O)ccn3)n[nH]2)C1 [Compound 75, (1R,3S)-3-[5-({4-[2-(2-formyl-3-hydroxyphenyl)ethynyl]pyridin-2-yl}amino)-2H-pyrazol-3-yl]cyclopentyl N-isopropylcarbamate; trifluoroacetic acid] | 5.30 | 6.65 | 6.43 | 7.67 | – |
| CC(C)NC(=O)O[C@@H]1CC[C@H](c2cc(NC(=O)c3cc(C(=O)Nc4ccccc4C=O)nn3C)n[nH]2)C1 [Compound 21, (1R,3S)-3-(5-{5-[(2-formylphenyl)carbamoyl]-2-methylpyrazole-3-amido}-2H-pyrazol-3-yl)cyclopentyl N-isopropylcarbamate; trifluoroacetic acid] | 5.67 | 5.41 | 6.54 | 8.26 | – |
| Cc1nc(-c2cccc(O)c2C=O)sc1C(=O)Nc1cc([C@H]2CC[C@@H](OC(=O)NC(C)C)C2)[nH]n1 [Compound 53, (1R,3S)-3-(3-(2-(2-formyl-3-hydroxyphenyl)-4-methylthiazole-5-carboxamido)-1H-pyrazol-5-yl)cyclopentyl isopropylcarbamate] | 6.44 | 5.44 | 7.66 | 8.03 | – |
| CC(C)NC(=O)O[C@@H]1CC[C@H](c2cc(NC(=O)OCc3cccc(O)c3C=O)n[nH]2)C1 [Compound 63, (2-formyl-3-hydroxyphenyl)methyl N-{5-[(1S,3R)-3-[(isopropylcarbamoyl)oxy]cyclopentyl]-1H-pyrazol-3-yl}carbamate] | 5.90 | 5.20 | 6.44 | 8.02 | – |
| CC(C)NC(=O)O[C@@H]1CC[C@H](c2cc(NC(=O)Cc3ccc(O)c(C=O)c3)n[nH]2)C1 [Compound 5, (1R,3S)-3-{5-[2-(3-formyl-4-hydroxyphenyl)acetamido]-2H-pyrazol-3-yl}cyclopentyl N-isopropylcarbamate] | – | 7.28 | 8.26 | 8.18 | 6.73 |
| COc1cc(O)c(C=O)c(OCC(=O)Nc2cc([C@H]3CC[C@@H](OC(=O)N4C5COCC4C5)C3)[nH]n2)c1 [Compound 231, (1R,3S)-3-{5-[2-(2-formyl-3-hydroxy-5-methoxyphenoxy)acetamido]-2H-pyrazol-3-yl}cyclopentyl 3-oxa-6-azabicyclo[3.1.1]heptane-6-carboxylate] | 7.73 | 5.84 | > 8.58 | 8.49 | – |

Second part, led by results:

| pIC50 [1, 5] | pIC50 [2] | pIC50 [3] | pIC50 [4] | Compound | pIC50 [1] |
| --- | --- | --- | --- | --- | --- |
| 7.38 | < 5.20 | 7.69 | 7.99 | COc1cc(O)c(C=O)c(OCC(=O)Nc2cc([C@H]3CC[C@@H](OC(=O)NC4(C#N)CC4)C3)[nH]n2)c1 [Compound 215] | – |
| 7.41 | 5.49 | 8.15 | 8.72 | COCC1(NC(=O)O[C@@H]2CC[C@H](c3cc(NC(=O)COc4cc(OC)cc(O)c4C=O)n[nH]3)C2)CCC1 (stereo in doubt) [Compound 198] | – |
| 7.74 | 5.54 | 8.26 | 8.63 | C#CC1(NC(=O)O[C@@H]2CC[C@H](c3cc(NC(=O)COc4cc(OC)cc(O)c4C=O)n[nH]3)C2)CC1 [Compound 218] | – |
| 6.64 | 5.28 | 7.82 | 8.23 | CC(C)(C)NC(=O)O[C@@H]1CC[C@H](c2cc(NC(=O)COc3cccc(O)c3C=O)n[nH]2)C1 [Compound 84, (1R,3S)-3-(3-(2-(2-formyl-3-hydroxyphenoxy)acetamido)-1H-pyrazol-5-yl)cyclopentyl tert-butylcarbamate] | – |
| 7.48 | 5.37 | 7.96 | 8.65 | COc1cc(O)c(C=O)c(OCC(=O)Nc2cc([C@H]3CC[C@@H](OC(=O)N4CCCC4)C3)[nH]n2)c1 [Compound 255, (1R,3S)-3-(3-(2-(2-formyl-3-hydroxy-5-methoxyphenoxy)acetamido)-1H-pyrazol-5-yl)cyclopentyl pyrrolidine-1-carboxylate] | – |
| 7.67 | 5.88 | 8.38 | 8.85 | COc1cc(O)c(C=O)c(OCC(=O)Nc2cc([C@H]3CC[C@@H](OC(=O)N(C)C(C)C)C3)[nH]n2)c1 [Compound 244, (1R,3S)-3-{5-[2-(2-formyl-3-hydroxy-5-methoxyphenoxy)acetamido]-2H-pyrazol-3-yl}cyclopentyl N-isopropyl-N-methylcarbamate] | – |
| 7.24 | < 5.00 | 7.68 | 8.55 | COc1cc(O)c(C=O)c(OCC(=O)Nc2cc([C@H]3CC[C@@H](OC(=O)N4CCOCC4)C3)[nH]n2)c1 [Compound 230] | – |
| 7.74 | 5.89 | 9.21 | 8.76 | COc1cc(OC)c(C=O)c(OCC(=O)Nc2cc([C@H]3CC[C@@H](OC(=O)N4CCC4(C)C)C3)[nH]n2)c1 [Compound 227] | – |
| 7.58 | 5.92 | 8.35 | 8.82 | COc1cc(O)c(C=O)c(OCC(=O)Nc2cc([C@H]3CC[C@@H](OC(=O)NC45CC(C4)C5)C3)[nH]n2)c1 [Compound 249, (1R,3S)-3-{5-[2-(2-formyl-3-hydroxy-5-methoxyphenoxy)acetamido]-2H-pyrazol-3-yl}cyclopentyl N-{bicyclo[1.1.1]pentan-1-yl}carbamate] | – |
| 7.45 | < 5.00 | 7.52 | 8.33 | COCCNC(=O)O[C@@H]1CC[C@H](c2cc(NC(=O)COc3cc(OC)cc(O)c3C=O)n[nH]2)C1 [Compound 213] | – |
| 6.88 | < 5.00 | 7.43 | 7.60 | COc1ccc(OCC(=O)Nc2cc([C@H]3CC[C@@H](OC(=O)NC(C)C)C3)[nH]n2)c(C=O)c1O [Compound 80, (1R,3S)-3-{5-[2-(2-formyl-3-hydroxy-4-methoxyphenoxy)acetamido]-2H-pyrazol-3-yl}cyclopentyl N-isopropylcarbamate] | – |
| 6.51 | 5.19 | 7.18 | 8.30 | COc1cc(O)c(C=O)c(Oc2ccnc(Nc3cc([C@H]4CC[C@@H](OC(=O)NC(C)C)C4)[nH]n3)c2)c1 [Compound 76, (1R,3S)-3-(3-((4-(2-formyl-3-hydroxy-5-methoxyphenoxy) 476yridine-2-yl)amino)-1H-pyrazol-5-yl)cyclopentyl isopropylcarbamate] | – |
